Data on 7 compounds can be found in paper PMC6273621, “Synthesis and the Biological Activity of Phosphonylated 1,2,3-Triazolenaphthalimide Conjugates” (Molecules, 2016).

Data set [1] can be described thus: Cytotoxicity, cell growth (CC50) in HEL cells. The data set is classed as cell-based. Conditions: human, concentration reducing cell growth by 50%.
Data set [2] deals with TK+ VZV strain. Nature of the data set: microbe, parasite or virus in culture. Conditions: concentration reducing virus plaque formation by 50%. The data set is classed as cell-based, varicella-zoster virus (VZV) strain Oka.
Data set [3] relates to TK− VZV strain. The data set is described as follows: microbe, parasite or virus in culture. The format is cell-based, varicella-zoster virus (VZV) strain 07−1. Conditions: concentration reducing virus plaque formation by 50%.
Data set [4] has as its system HEL cells. Nature of the data set: Cytotoxicity, cell morphology (MCC) in HEL cells. Conditions: minimum cytotoxic concentration causing microscopically detectable alteration of cell morphology. The data set is classed as cell-based, human. The text has this: The cytotoxicity of the tested compounds toward the uninfected host cells was defined as the minimum cytotoxic concentration (MCC) that causes a microscopically detectable alteration of normal cell morphology.

Data set [5] has as its system murine leukemia (L1210) cells. The data set is described as follows: Cytostatic activity, L1210 cell proliferation. The data set is classed as cell-based. Conditions: Mus musculus, read-out: IC50 L1210. The method, then: (§1) All assays were performed in 96-well microtiter plates. To each well were added (5–7.5) × 10^4 tumor cells and a given amount of the test compound. The cells were allowed to proliferate for 48 h (murine leukemia L1210 cells) or 72 h (human lymphocytic CEM and human cervix carcinoma HeLa cells) at 37 °C in a humidified CO2-controlled atmosphere. At the end of the incubation period, the cells were counted in a Coulter counter.

The test system of data set [6] is human T-lymphocyte (CEM) cells. Nature of the data set: Cytostatic activity, CEM cell proliferation. The format is cell-based. Conditions: CCRF-CEM, 72 h, read-out: IC50 CEM. The method, then: as §1
The test system of data set [7] is human cervix carcinoma cells (HeLa). Nature of the data set: Cytostatic activity, HeLa cell proliferation. The format is cell-based. Conditions: 72 h, read-out: IC50 HeLa. The method, then: as §1
Data set [8] deals with human dermal microvascular endothelial HMEC-1 cells. The data set is described as follows: Cytostatic activity, HMEC-1 cell proliferation. The data set is classed as cell-based.
Data set [9] has as its system L1210, CEM, HeLa and HMEC-1 cells. The data set is described as follows: Cytostatic activity, overall statement on the tested cell lines. Conditions: naphthalimides devoid of the 1,2,3-triazole unit. The format is cell-based. Here is the method:
as §1

[10] abbreviates: Human alphaherpesvirus 3, HEL, read-out: Antiviral Activity EC50, TK+ VZV Strain, HEL cell cultures.
Setting [11] is: Human alphaherpesvirus 3, HEL, read-out: Antiviral Activity EC50, TK− VZV Strain, HEL cell cultures.
Setting [12] is: L1210, cell proliferation, 48 h.
[13] abbreviates: HMEC-1, cell proliferation, read-out: IC50 HMEC-1.

Where two headings read alike, the source gives them in different places.

What is called CC50 is the concentration that lowers cell viability or growth by half. A higher CC50 goes with lower toxicity to the cells. In [1] (HEL cells (uninfected)), `Nc1nc2c(ncn2COCCO)c(=O)[nH]1` [Acyclovir] displayed a CC50 greater than 440 µM.

Broadly, the EC50 is the concentration that produces a half-maximal response. For `O=c1[nH]c(=O)n([C@H]2C[C@H](O)[C@@H](CO)O2)cc1/C=C/Br` [Brivudin, reference compound], the EC50 in data set [2] (setting [10]) is 0.013 µM; in data set [2] (read-out: Antiviral Activity EC50, TK+ VZV Strain, HEL cell cultures) it was 0.0078 µM; in data set [3] (setting [11]), 24.9 µM; in data set [3] (read-out: Antiviral Activity EC50, TK− VZV Strain, HEL cell cultures) it was 13.7 µM. Further, the “Cytotoxicity, Cell Morphology (MCC)” value in data set [4] is greater than 300 μM. Besides, the CC50 in data set [1] was greater than 300 µM.

As usually defined, the IC50 is the concentration needed to halve the response being measured. On to `C#CCN1C(=O)c2cccc3c(Br)ccc(c23)C1=O` [Compound 8], for which the IC50 was no less than 250 µM in data set [5] (setting [12]), no less than 250 µM in data set [6] (cell proliferation), greater than 250 µM in data set [7] (cell proliferation) and greater than 250 µM in data set [8] (setting [13]). In addition, in data set [9], the “Cytostatic activity (in words)” value is “inactive”.

A word on the melting point: it is the temperature, or range, at which the solid turns liquid. As to `C#CCN1C(=O)c2cccc3cc([N+](=O)[O-])cc(c23)C1=O` [Compound 11, 5-Nitro-2-(prop-2-yn-1-yl)-1H-benzo[de]isoquinoline-1,3(2H)-dione], the melting point lay in the range of 213 to 214 °C. Also, the EC50 in [2] (setting [10]) amounted to 48.9 µM. For the same compound, the EC50 in [3] (setting [11]) was greater than 100 µM. The “Cytotoxicity, Cell Morphology (MCC)” value in data set [4] was found to be 100 μM. For the same compound, in data set [5] (setting [12]), the IC50 is 177 ± 16 µM. Further, the IC50 in [6] (cell proliferation) was 229 ± 18 µM. In data set [7] (cell proliferation), the IC50 worked out at 109 ± 5 µM. The IC50 in [8] (setting [13]) was greater than 250 µM. The “Cytostatic activity (in words)” value in data set [9] was “inactive”.

`CCOP(=O)(OCC)C(O)Cn1cc(CN2C(=O)c3cccc4cc([N+](=O)[O-])cc(c34)C2=O)nn1` (stereo not drawn) [Compound 16e, Diethyl 2-{4-[(5-Nitro-1,3-dioxo-1H-benzo[de]isoquinolin-2(3H)-yl)methyl]-1H-1,2,3-triazol-1-yl}-1-hydroxyethylphosphonate] yielded a melting point of 212 to 213 °C. The EC50 in [2] (setting [10]) stood at 83.6 µM. Besides, the EC50 in data set [3] (setting [11]) is greater than 100 µM. Besides, in data set [4], the “Cytotoxicity, Cell Morphology (MCC)” value is recorded as greater than 100 μM. In addition, the IC50 in data set [5] (L1210, 48 h) came to 111 ± 39 µM. In [6], the IC50 was 127 ± 14 µM. Also, the IC50 in data set [7] was 132 ± 2 µM. The IC50 in [8] (HMEC-1, read-out: IC50 HMEC-1) was greater than 250 µM.

In turn, `CCOP(=O)(CC(O)Cn1cc(CN2C(=O)c3cccc4cc([N+](=O)[O-])cc(c34)C2=O)nn1)OCC` (stereo not drawn) [Compound 16f, Diethyl 3-{4-[(5-Nitro-1,3-dioxo-1H-benzo[de]isoquinolin-2(3H)-yl)methyl]-1H-1,2,3-triazol-1-yl}-2-hydroxypropylphosphonate] had a melting point of 176 to 177 °C. Also, the EC50 in [2] (setting [10]) was 56.7 µM. Besides, the EC50 in data set [3] (setting [11]) stood at 91.5 µM. The “Cytotoxicity, Cell Morphology (MCC)” value in data set [4] is on record as greater than 100 μM. For the same compound, the IC50 in [5] (L1210, 48 h) turned out to be 68 ± 11 µM. Besides, the IC50 in data set [6] was 71 ± 21 µM. Moreover, the IC50 in [7] is 42 ± 21 µM. Moreover, the IC50 in data set [8] (HMEC-1, read-out: IC50 HMEC-1) amounted to 155 ± 6 µM.

Regarding `CCOP(=O)(COCCn1cc(CN2C(=O)c3cccc4cc([N+](=O)[O-])cc(c34)C2=O)nn1)OCC` [Compound 16g, Diethyl 2-{4-[(5-Nitro-1,3-dioxo-1H-benzo[de]isoquinolin-2(3H)-yl)methyl]-1H-1,2,3-triazol-1-yl}ethoxy-methylphosphonate], the melting point lay in the range of 89 to 90 °C. In data set [2] (setting [10]), the EC50 was found to be 50.2 µM. Further, the EC50 in [3] (setting [11]) is greater than 100 µM. In data set [4], the “Cytotoxicity, Cell Morphology (MCC)” value is reported as greater than 100 μM. Besides, in data set [5] (L1210, 48 h), the IC50 stood at 71 ± 1 µM. The IC50 in [6] was 79 ± 4 µM. Besides, in data set [7], the IC50 amounted to 76 ± 8 µM. Moreover, in data set [8] (HMEC-1, read-out: IC50 HMEC-1), the IC50 turned out to be 148 ± 3 µM.
